Measured values published in patent US5407940A, “New ellipticine compounds” (priority 1992, dated 1995).

How the values were obtained:
[1] = tested on: L1210; test: Cytotoxicity, line L1210 (Microculture Tetrazolium Assay); type: cell-based, murine; details: for IC50: Mus musculus, L1210, 48 h, 2 days incubation, read-out: Cytotoxicity IC50, line L1210; for times more cytotoxic than adriamycin / times more cytotoxic than elliptinium acetate: L1210
Text: (§1) The cells are distributed on microplates and exposed to the cytotoxic compounds.

[2] = tested on: P388; test: Cytotoxicity, sensitive line P388 (Microculture Tetrazolium Assay); type: cell-based, murine; details: Mus musculus, P388, 48 h; 2 days incubation; read-out: Cytotoxicity IC50, sensitive P388
Text: as §1

[3] = tested on: S1/tMDR; test: cells; details: Homo sapiens, 96 h, read-out: Cytotoxicity IC50, resistant S1/tMDR
[4] = tested on: S1; test: Cytotoxicity, sensitive line S1; type: cell-based; details: Homo sapiens, 96 h; 4 days incubation; read-out: Cytotoxicity IC50, sensitive S1
Text: as §1

[5] = tested on: leukaemia P388; test: Anti-tumour activity against leukaemia P388 in vivo; details: for Survivors on d60/total no. of mice / T/C: intraperitoneal, day 1
[6] = tested on: KB-A1; test: cells; details: Homo sapiens, KB-A1, 96 h, read-out: Cytotoxicity IC50, resistant KB-A1
[7] = tested on: P388/VCR-20; test: cells; details: Mus musculus, P388, 48 h, read-out: Cytotoxicity IC50, resistant P388/VCR-20
[8] = tested on: P388/VCR-20; details: for resistance factor: P388/VCR-20 vs P388
[9] = tested on: S1/tMDR; details: for resistance factor: S1/tMDR vs S1
[10] = tested on: colon 38; test: Anti-tumour activity against colon 38; type: in vivo, female B6D2F1 mice; details: for median T/C (tumour volume): d2 and d9, d25
Protocol: Colon 38 (supplied by NCI, Frederick, USA) was inserted in the form of fragments by the subcutaneous route into female B6D2F1 mice. The compounds were administered by the i.v. route on d2 and d9 and the anti-tumour activity was determined on […] by measuring the tumour volume (T/C volume, %).

[11] = tested on: KB-3-1; test: Cytotoxicity, sensitive line KB-3-1; type: cell-based; details: Homo sapiens, KB 3-1, 96 h; 4 days incubation; read-out: Cytotoxicity IC50, sensitive KB-3-1
Text: as §1

[12] = tested on: KB-A1; details: KB-A1 vs KB-3-1

**Q.** COc1ccc2c(c1)c1cc3c(C(=O)NCCCN(C)C)nccc3c(C)c1n2C [Example 4, 1-(N,N-Dimethylaminopropylaminocarbonyl)-5,6-dimethyl-9-methoxy-6H-pyrido[4,3-b]carbazole] was tested. Which IC50 [1] did it give?
**A.** 875 nM

**Q.** Which IC50 [1] does the source give for Cc1c2ccnc(C(=O)NCCCCN)c2cc2c3cc(O)ccc3n(C)c12 [Example 12, 1-[(4-Aminobutyl)aminocarbonyl]-5,6-dimethyl-9-hydroxy-6H-pyrido[4,3-b]carbazole] here?
**A.** 450 nM

**Q.** With COc1ccc2[nH]c3c(C)c4ccnc(C(=O)NCCCN(C)C)c4cc3c2c1 [Example 5, 1-(N,N-Dimethylaminopropylaminocarbonyl) -5-methyl-9-methoxy-6H-pyrido[4,3-b]carbazole] as the compound, how does the IC50 [1] read?
**A.** 1500 nM

**Q.** COc1ccc2[nH]c3c(C)c4ccnc(C(=O)NCCN5CCCC5)c4cc3c2c1 [Example 9, 1-[2-(Pyrrolidin-1-yl)ethylaminocarbonyl]-5-methyl-9-methoxy-6H-pyrido[4,3-b]carbazole] was tested. Which IC50 [1] did it give?
**A.** 1500 nM

**Q.** For COc1ccc2[nH]c3c(C)c4ccnc(C(=O)NCCN(C)C)c4cc3c2c1 [Example 8, 1-(N,N-Dimethylaminoethylaminocarbonyl)-5-methyl-9-methoxy-6H-pyrido[4,3-b]carbazole], which IC50 [1] is on record?
**A.** 487 nM

**Q.** Which results are given for Cc1c2ccnc(C(=O)NCCCN(C)C)c2cc2c3cc(O)ccc3n(C)c12 [Example 2, 1-(N,N-Dimethylaminopropylaminocarbonyl)-5,6-dimethyl-9-hydroxy-6H-pyrido[4,3-b]carbazole]?
**A.** IC50 [2]: 11 nM; IC50 [3]: 38 nM; IC50 [4]: 57 nM; Survivors on d60/total no. of mice ([5]; 5 mg/kg): 0/10; T/C ([5]; 5 mg/kg): 177%; Survivors on d60/total no. of mice ([5]; 10 mg/kg): 0/10; T/C ([5]; 10 mg/kg): 190%; Survivors on d60/total no. of mice ([5]; 20 mg/kg): 3/10; T/C ([5]; 20 mg/kg): 250%; Survivors on d60/total no. of mice ([5]; 30 mg/kg): 1/10; T/C ([5]; 30 mg/kg): 204%; Survivors on d60/total no. of mice ([5]; 40 mg/kg): 2/10; T/C ([5]; 40 mg/kg): 219%; Survivors on d60/total no. of mice ([5]; 50 mg/kg): 3/10; T/C ([5]; 50 mg/kg): 222%; Survivors on d60/total no. of mice ([5]; 60 mg/kg): 3/10; T/C ([5]; 60 mg/kg): 248%; IC50 [6]: 1220 nM; IC50 [7]: 38 nM; resistance factor [8]: 3,4; resistance factor [9]: 0,7; T/C ([10]; 20 mg/kg and above, i.v.): 0%; activity against that solid tumour (in words) ([10]; 20 mg/kg and above, i.v.): very active; median T/C (tumour volume) ([10]; 20 mg/kg, i.v.): 0%; median T/C (tumour volume) ([10]; 40 mg/kg, i.v.): 0%; median T/C (tumour volume) ([10]; 60 mg/kg, i.v.): 0%; activity relative to 5-fluorouracyle ([10]; 5-Fu at 80 mg/kg): as active as; IC50 [11]: 19 nM; resistance factor [12]: 64; times more cytotoxic than adriamycin [1]: approximately 9 times; times more cytotoxic than elliptinium acetate [1]: ~46 times; IC50 [1]: 4.3 nM

**Q.** Which results are given for Cc1c2ccnc(C(=O)NCCN(C)C)c2cc2c1[nH]c1ccc(O)cc12 [Example 6, 1-(N,N-Dimethylaminoethylaminocarbonyl)-5-methyl-9-hydroxy-6H-pyrido[4,3-b]carbazole]?
**A.** IC50 [2]: 19 nM; IC50 [3]: 29 nM; IC50 [4]: 42 nM; Survivors on d60/total no. of mice ([5]; 5 mg/kg): 4/10; T/C ([5]; 5 mg/kg): 280%; Survivors on d60/total no. of mice ([5]; 10 mg/kg): 3/10; T/C ([5]; 10 mg/kg): 233%; Survivors on d60/total no. of mice ([5]; 20 mg/kg): 5/10; T/C ([5]; 20 mg/kg): > 600%; Survivors on d60/total no. of mice ([5]; 30 mg/kg): 7/10; T/C ([5]; 30 mg/kg): > 600%; long-term survivors over all doses employed ([5]; all doses employed): all the doses employed giving long-term survivors; IC50 [6]: 737 nM; IC50 [7]: 10 nM; resistance factor [8]: 0,5; sensitivity of resistant line P388/VCR-20 relative to corresponding sensitive line ([8]; vs P388): more sensitive; resistance factor [9]: 0,7; sensitivity of resistant line S1/tMDR relative to corresponding sensitive line ([9]; vs S1): more sensitive; median T/C (tumour volume) ([10]; 10 mg/kg, i.v.): 35%; median T/C (tumour volume) ([10]; 20 mg/kg, i.v.): 22%; median T/C (tumour volume) ([10]; 30 mg/kg, i.v.): 0%; IC50 [11]: 20 nM; resistance factor [12]: 37; times more cytotoxic than adriamycin [1]: approximately 9 times; times more cytotoxic than elliptinium acetate [1]: ~46 times; IC50 [1]: 3.1 nM

**Q.** Which “median T/C (tumour volume)” value ([10]; 80 mg/kg, i.v.) does the source give for O=c1[nH]cc(F)c(=O)[nH]1 [Example 5-Fu, 5-fluorouracyle, reference compound] here?
**A.** 0%

**Q.** How did the IC50 [1] turn out when Cc1c2ccnc(C(=O)NCCCN3CCOCC3)c2cc2c3cc(O)ccc3n(C)c12 [Example 14, 1-[N-(3-Morpholinopropyl)aminocarbonyl]-5,6-dimethyl-9-hydroxy-6H-pyrido[4,3-b]carbazole] was run?
**A.** 10.4 nM

**Q.** Which IC50 [1] does the source give for Cc1c2ccnc(C(=O)NCCN3CCCC3)c2cc2c3cc(O)ccc3n(C)c12 [Example 13, 1-[N-(2-Pyrrolidin-1-ylethyl)aminocarbonyl]-5,6-dimethyl-9-hydroxy-6H-pyrido[4,3-b]carbazole] here?
**A.** 13.1 nM

**Q.** Cc1c2ccnc(C(=O)NCCCN(C)C)c2cc2c1[nH]c1ccc(O)cc12 [Example 7, 1-(N,N-Dimethylaminopropylaminocarbonyl)-5-methyl-9-hydroxy-6H-pyrido[4,3-b]carbazole] was tested. Which IC50 [1] did it give?
**A.** 41 nM

**Q.** For Cc1c2ccnc(C(=O)NCCNCCO)c2cc2c3cc(O)ccc3n(C)c12 [Example 11, 1-{2-[(2-Hydroxyethyl)amino]ethylaminocarbonyl}-5,6-dimethyl-9-hydroxy-6H-pyrido [4,3-b]carbazole], which IC50 [1] is on record?
**A.** 29.7 nM

**Q.** With COc1ccc2c(c1)c1cc3c(C(=O)NCCN(C)C)nccc3c(C)c1n2C [Example 3, 1-(N,N-Dimethylaminoethylaminocarbonyl)-5,6-dimethyl-9-methoxy-6H-pyrido[4,3-b]carbazole] as the compound, how does the IC50 [1] read?
**A.** 574 nM
